How the values were obtained:
MOLM-13 parental cells = assay: Drug treatment IC50 / cell viability (CellTiter Glo) and synergy, MOLM-13 parental cells; format: cell-based; conditions: Homo sapiens
Experimental: (§1) Cell lines were plated in 96 well plates and exposed to the indicated compounds at various concentration ranges with a minimum of three technical replicates per concentration per cell line. Cell viability was measured with the CellTiter Glo reagent (Promega) as per manufacturer's instructions. Absolute viability values were converted to percentage viability versus DMSO control treatment, and then non-linear fit of log (inhibitor) versus response (three parameters) was performed in GraphPad Prism v7.0 to obtain an IC50 values. Two-dimensional heatmaps of Synergy Scores from Bliss synergy models were generated based on Demidenko et al., 2019^83.

[1] = tested on: venetoclax-resistant MOLM-13 cell lines; assay: Drug treatment IC50 / cell viability (CellTiter Glo) and synergy, venetoclax-resistant MOLM-13 cell lines; format: cell-based; conditions: Homo sapiens, cell lines developed by continuous exposure to venetoclax for 3 weeks
Experimental: as §1
The efficacy of SM09419 across a spectrum of human AML cell lines was tested. […] Three independent venetoclax-resistant MOLM-13 cell lines following continuous exposure to venetoclax for 3 weeks were developed. […] These findings were further extended to patient-derived xenograft (PDX) models of AML from patients with de novo resistance to venetoclax combination regimens (5-azacytidine or low-dose cytarabine) (FIGS. 6C-6D). Following xenotransplantation from two individual venetoclax-resistant patients into NSGS mice, disease engraftment with >10% human hCD45^+ hCD34^+ hCD38^+ cells was detected and mice were exposed to SM09419 (25 mg/kg) or vehicle administered orally and daily for 3 weeks.

IC50 [1]: > 99 nM
Compound: CC1(C)CCC(CN2CCN(c3ccc(C(=O)NS(=O)(=O)c4ccc(NCC5CCOCC5)c([N+](=O)[O-])c4)c(Oc4cnc5[nH]ccc5c4)c3)CC2)=C(c2ccc(Cl)cc2)C1 [venetoclax]
IC50 (MOLM-13 parental cells): ~15 nM

Source: patent US12661352B2, “Combination therapy with CLK/DYRK inhibitors and BCL2 inhibitors to treat leukemia” (Memorial Sloan-Kettering Cancer Center, priority 2023, dated 2026)
